ChEMBL document CHEMBL1201862, “PubChem BioAssay data set” (2004)
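Following 48 hours of exposure in 96-well plates, responses at five concentrations were used to interpolate endpoints linearly. GI50 marks 50% less growth.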 Calls of active or inactive are those of the source. No stated cut-off is given here; in the data, active = GI50 up to about 1.1 µM and inactive = higher. Where a SMILES comes first, the peptide text is derived from it. [ ]: non-standard residue; d: D form. Phe(4-NO2) = N[CH](Cc1ccc([N+](=O)[O-])cc1)C(=O)O

What was measured:
Assay in all cases: DTP human tumour cell line panel, 48 h
SK-OV-3 = system: SK-OV-3
SW-620 = system: SW-620
HCT-116 = system: HCT-116
SF-295 = system: SF-295
CCRF-CEM = system: CCRF-CEM
EKVX = system: EKVX
SF-539 = system: SF-539
OVCAR-3 = system: OVCAR-3
HT-29 = system: HT-29
SK-MEL-28 = system: SK-MEL-28
OVCAR-8 = system: OVCAR-8
PC-3 = system: PC-3
OVCAR-5 = system: OVCAR-5
DU-145 = system: DU-145
SK-MEL-2 = system: SK-MEL-2
OVCAR-4 = system: OVCAR-4
SR = system: SR
UO-31 = system: UO-31
CAKI-1 = system: CAKI-1

Compound | GI50 (SK-OV-3) | GI50 (SW-620) | GI50 (HCT-116) | GI50 (SF-295) | GI50 (CCRF-CEM) | GI50 (EKVX) | GI50 (SF-539) | GI50 (OVCAR-3) | GI50 (HT-29) | GI50 (SK-MEL-28) | GI50 (OVCAR-8) | GI50 (PC-3) | GI50 (OVCAR-5) | GI50 (DU-145) | GI50 (SK-MEL-2) | GI50 (OVCAR-4) | GI50 (SR) | GI50 (UO-31) | GI50 (CAKI-1)
O=C(CCCN1CCC(Nc2ccc(F)cc2)(c2nnnn2C2CCCCC2)CC1)c1ccc(F)cc1 | 3.39 µM (inactive) | 22.5 µM (inactive) | 13.2 µM (inactive) | 18.3 µM (inactive) | 7.1 µM (inactive) | 15.9 µM (inactive) | 12.6 µM (inactive) | 14.8 µM (inactive) | 8.57 µM (inactive) | 16.2 µM (inactive) | 23.6 µM (inactive) | 13.1 µM (inactive) | 15.7 µM (inactive) | 14.5 µM (inactive) | 16.3 µM (inactive) | 12.9 µM (inactive) | 11.7 µM (inactive) | 14.1 µM (inactive) | –
O=C(O)CNC(=O)c1c2ccccc2nc2ccccc12 | > 100 µM (inactive) | > 100 µM (inactive) | > 100 µM (inactive) | > 100 µM (inactive) | > 100 µM (inactive) | > 100 µM (inactive) | > 100 µM (inactive) | > 100 µM (inactive) | > 100 µM (inactive) | > 100 µM (inactive) | > 100 µM (inactive) | > 100 µM (inactive) | > 100 µM (inactive) | > 100 µM (inactive) | > 100 µM (inactive) | > 100 µM (inactive) | > 100 µM (inactive) | > 100 µM (inactive) | > 100 µM (inactive)
CC(=O)C1C(=O)C(=O)N(c2ccccc2)C1=O (stereo unspecified) | > 100 µM (inactive) | > 100 µM (inactive) | > 100 µM (inactive) | > 100 µM (inactive) | > 100 µM (inactive) | > 100 µM (inactive) | > 100 µM (inactive) | > 100 µM (inactive) | > 100 µM (inactive) | > 100 µM (inactive) | > 100 µM (inactive) | > 100 µM (inactive) | > 100 µM (inactive) | > 100 µM (inactive) | > 100 µM (inactive) | > 100 µM (inactive) | – | > 100 µM (inactive) | > 100 µM (inactive)
CC(=O)O[C@H]1C(=O)[C@@]2(C)[C@H]([C@H](OC(=O)c3ccccc3)[C@]3(O)C[C@H](OC(=O)[C@H](O)[C@@H](NC(=O)c4ccccc4)c4ccccc4)C(C)=C1C3(C)C)[C@]1(OC(C)=O)CO[C@@H]1C[C@@H]2O [PACLITAXEL] | 0.00881 µM (active) | 0.00326 µM (active) | 0.00268 µM (active) | – | 0.00267 µM (active) | – | 0.00373 µM (active) | – | 0.00273 µM (active) | – | – | 0.0182 µM (active) | 0.0783 µM (active) | 0.0239 µM (active) | – | 0.486 µM (active) | – | 1.09 µM (active) | 0.203 µM (active)
COC(=O)CCC(NC(=O)C(CCC(=O)OC)NC(=O)C(CCC(=O)OC)NC(=O)C(CCC(=O)OC)NC(=O)C(CCC(=O)OC)NC(=O)C(Cc1ccc([N+](=O)[O-])cc1)NC(=O)C(CCC(=O)OC)NC(=O)C(CCC(=O)OC)NC(=O)C(CCC(=O)OC)NC(=O)C(CCC(=O)OC)NC(=O)C(CCC(=O)OC)NC(C)=O)C(N)=O (stereo unspecified) (Ac-E(OMe)E(OMe)E(OMe)E(OMe)E(OMe)[Phe(4-NO2)]E(OMe)E(OMe)E(OMe)E(OMe)E(OMe)-NH2; configuration not given here) | 99.3 µM (inactive) | > 100 µM (inactive) | > 100 µM (inactive) | 31.4 µM (inactive) | > 100 µM (inactive) | > 100 µM (inactive) | – | – | > 100 µM (inactive) | > 100 µM (inactive) | > 100 µM (inactive) | – | > 100 µM (inactive) | > 100 µM (inactive) | > 100 µM (inactive) | > 100 µM (inactive) | > 100 µM (inactive) | > 100 µM (inactive) | > 100 µM (inactive)
O=c1[nH]cc(OCC(F)(F)F)c(=O)[nH]1 | > 100 µM (inactive) | > 100 µM (inactive) | > 100 µM (inactive) | > 100 µM (inactive) | > 100 µM (inactive) | > 100 µM (inactive) | > 100 µM (inactive) | > 100 µM (inactive) | > 100 µM (inactive) | > 100 µM (inactive) | > 100 µM (inactive) | – | > 100 µM (inactive) | – | > 100 µM (inactive) | > 100 µM (inactive) | > 100 µM (inactive) | > 100 µM (inactive) | > 100 µM (inactive)
CC(C)C12C=CC(C)(CC1)n1c(=O)c3cc4ccccc4cc3c(=O)n12 (stereo unspecified) | 52.1 µM (inactive) | 60.1 µM (inactive) | 47.2 µM (inactive) | 73.5 µM (inactive) | 43.1 µM (inactive) | 43.5 µM (inactive) | 66.7 µM (inactive) | 46.2 µM (inactive) | 45.1 µM (inactive) | > 100 µM (inactive) | 75.9 µM (inactive) | – | 40.7 µM (inactive) | – | 48.3 µM (inactive) | 43.9 µM (inactive) | 33.5 µM (inactive) | 24.9 µM (inactive) | 87.9 µM (inactive)
CC(C)COC(=O)N1N=NC2C3OC(CC3=O)C21 (stereo unspecified) | 40.4 µM (inactive) | > 100 µM (inactive) | > 100 µM (inactive) | > 100 µM (inactive) | > 100 µM (inactive) | > 100 µM (inactive) | > 100 µM (inactive) | > 100 µM (inactive) | > 100 µM (inactive) | > 100 µM (inactive) | > 100 µM (inactive) | – | > 100 µM (inactive) | – | > 100 µM (inactive) | > 100 µM (inactive) | > 100 µM (inactive) | > 100 µM (inactive) | > 100 µM (inactive)
O=C1C(NS(=O)(=O)c2ccccc2)=C(n2cnc3ccccc32)C(=O)c2ccccc21 | > 100 µM (inactive) | > 100 µM (inactive) | > 100 µM (inactive) | 57.4 µM (inactive) | 85.9 µM (inactive) | > 100 µM (inactive) | > 100 µM (inactive) | > 100 µM (inactive) | > 100 µM (inactive) | > 100 µM (inactive) | > 100 µM (inactive) | > 100 µM (inactive) | > 100 µM (inactive) | > 100 µM (inactive) | > 100 µM (inactive) | 34.5 µM (inactive) | > 100 µM (inactive) | 75.3 µM (inactive) | > 100 µM (inactive)
NNC(=O)c1nnn(CCc2ccccc2)c1C(=O)NN | – | – | > 100 µM (inactive) | > 100 µM (inactive) | > 100 µM (inactive) | > 100 µM (inactive) | – | > 100 µM (inactive) | > 100 µM (inactive) | > 100 µM (inactive) | > 100 µM (inactive) | > 100 µM (inactive) | > 100 µM (inactive) | > 100 µM (inactive) | > 100 µM (inactive) | > 100 µM (inactive) | > 100 µM (inactive) | > 100 µM (inactive) | > 100 µM (inactive)
O=[N+]([O-])c1nccn1COCCBr | > 100 µM (inactive) | > 100 µM (inactive) | > 100 µM (inactive) | > 100 µM (inactive) | > 100 µM (inactive) | > 100 µM (inactive) | > 100 µM (inactive) | > 100 µM (inactive) | > 100 µM (inactive) | > 100 µM (inactive) | > 100 µM (inactive) | – | > 100 µM (inactive) | – | > 100 µM (inactive) | > 100 µM (inactive) | > 100 µM (inactive) | > 100 µM (inactive) | > 100 µM (inactive)
